Reference: patent publication US9493455B2, “Azaindole derivatives as inhibitors of protein kinases” (ORIBASE PHARMA, priority 2012, dated 2016)

Tests used:
Assay in all cases: In vitro kinase assay (Z′-LYTE)
Format in all cases: biochemical
ABL = molecular target: T1, ABL (Homo sapiens, UniProt P00519); details: read-out: % of inhibition of the kinase compared to the control
T1 construct: purchased Invitrogen

ABL E255K = molecular target: T2, ABL E255K (Homo sapiens, UniProt P00519, E255K); details: read-out: percent inhibition of the kinase compared to the control
T2 construct: purchased Invitrogen
Outline: (§1)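 Percent inhibition is derived from a coupled-enzyme fluorescence format in which unphosphorylated FRET peptide is preferentially proteolysed. Compounds are screened once at 100 nM (10 μM against ABL T315I) in 1% DMSO, with ATP at its apparent Km.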

ABL G250E = molecular target: T3, ABL G250E (Homo sapiens, UniProt P00519, G250E); details: read-out: percent inhibition of the kinase compared to the control
T3 construct: purchased Invitrogen
Outline: as §1

ABL2 = molecular target: T4, ABL2 (Homo sapiens, UniProt P42684); details: read-out: percent inhibition of the kinase compared to the control
T4 construct: purchased Invitrogen
Outline: as §1

BRAF = molecular target: T5, BRAF (Homo sapiens, UniProt P15056); details: compound 100 nM; ATP 100 μM; read-out: % of inhibition of the kinase compared to the control
T5 construct: purchased Invitrogen
Outline: as §1

BRAF V600E = molecular target: T6, BRAF V600E (Homo sapiens, UniProt P15056, V600E); details: read-out: percent inhibition of the kinase compared to the control
T6 construct: purchased Invitrogen
Outline: as §1

BTK = molecular target: T7, BTK (Homo sapiens, UniProt Q06187); details: read-out: percent inhibition of the kinase compared to the control
T7 construct: purchased Invitrogen
Outline: as §1

CSK = molecular target: T8, CSK (Homo sapiens, UniProt P41240); details: read-out: percent inhibition of the kinase compared to the control
T8 construct: purchased Invitrogen
Outline: as §1

EGFR (ErbB1) T790M L858R = molecular target: T9, EGFR (ErbB1) T790M L858R (Homo sapiens, UniProt P00533, L858R/T790M); details: read-out: % of inhibition of the kinase compared to the control
T9 construct: purchased Invitrogen
Outline: as §1

EPHA2 = molecular target: T10, EPHA2 (Homo sapiens, UniProt P29317); details: read-out: percent inhibition of the kinase compared to the control
T10 construct: purchased Invitrogen
Outline: as §1

EPHB2 = molecular target: T11, EPHB2 (Homo sapiens, UniProt P29323); details: read-out: percent inhibition of the kinase compared to the control
T11 construct: purchased Invitrogen
Outline: as §1

ERBB4 = molecular target: T12, ERBB4 (Homo sapiens, UniProt Q15303); details: read-out: percent inhibition of the kinase compared to the control
T12 construct: purchased Invitrogen
Outline: as §1

ERK2 = molecular target: T13, ERK2 (Homo sapiens, UniProt P28482); details: read-out: percent inhibition of the kinase compared to the control
T13 construct: purchased Invitrogen
Outline: as §1

FES = molecular target: T14, FES (Homo sapiens, UniProt P07332); details: read-out: percent inhibition of the kinase compared to the control
T14 construct: purchased Invitrogen
Outline: as §1

FGFR1 = molecular target: T15, FGFR1 (Homo sapiens, UniProt P11362); details: read-out: % of inhibition of the kinase compared to the control
T15 construct: purchased Invitrogen
Outline: as §1

FRK = molecular target: T16, FRK (Homo sapiens, UniProt P42685); details: read-out: percent inhibition of the kinase compared to the control
T16 construct: purchased Invitrogen
Outline: as §1

FYN = molecular target: T17, FYN (Homo sapiens, UniProt P06241); details: read-out: percent inhibition of the kinase compared to the control
T17 construct: purchased Invitrogen
Outline: as §1

HCK = molecular target: T18, HCK (Homo sapiens, UniProt P08631); details: read-out: percent inhibition of the kinase compared to the control
T18 construct: purchased Invitrogen
Outline: as §1

HER2 = molecular target: T19, HER2 (Homo sapiens, UniProt P04626); details: read-out: percent inhibition of the kinase compared to the control
T19 construct: purchased Invitrogen
Outline: as §1

KDR (VEGFR2) = molecular target: T20, KDR (VEGFR2) (Homo sapiens, UniProt P35968); details: read-out: % of inhibition of the kinase compared to the control
T20 construct: purchased Invitrogen
Outline: as §1

LYN A = molecular target: T21, LYN A (Homo sapiens, UniProt P07948); details: read-out: percent inhibition of the kinase compared to the control
T21 construct: purchased Invitrogen
Outline: as §1

MAPK14 = molecular target: T22, MAPK14 (Homo sapiens, UniProt Q16539); details: read-out: percent inhibition of the kinase compared to the control
T22 construct: purchased Invitrogen
Outline: as §1

PKC theta = molecular target: T23, PKC theta (Homo sapiens, UniProt Q04759); details: read-out: percent inhibition of the kinase compared to the control
T23 construct: purchased Invitrogen
Outline: as §1

SRC = molecular target: T24, SRC (Homo sapiens, UniProt P12931); details: read-out: % of inhibition of the kinase compared to the control
T24 construct: purchased Invitrogen
Outline: as §1

VEGFR1 = molecular target: T25, VEGFR1 (Homo sapiens, UniProt P17948); details: read-out: % of inhibition of the kinase compared to the control
T25 construct: purchased Invitrogen
Outline: as §1

VEGFR3 = molecular target: T26, VEGFR3 (Homo sapiens, UniProt P35916); details: read-out: percent inhibition of the kinase compared to the control
T26 construct: purchased Invitrogen
Outline: as §1

T22 sequence (Q16539 whole entry): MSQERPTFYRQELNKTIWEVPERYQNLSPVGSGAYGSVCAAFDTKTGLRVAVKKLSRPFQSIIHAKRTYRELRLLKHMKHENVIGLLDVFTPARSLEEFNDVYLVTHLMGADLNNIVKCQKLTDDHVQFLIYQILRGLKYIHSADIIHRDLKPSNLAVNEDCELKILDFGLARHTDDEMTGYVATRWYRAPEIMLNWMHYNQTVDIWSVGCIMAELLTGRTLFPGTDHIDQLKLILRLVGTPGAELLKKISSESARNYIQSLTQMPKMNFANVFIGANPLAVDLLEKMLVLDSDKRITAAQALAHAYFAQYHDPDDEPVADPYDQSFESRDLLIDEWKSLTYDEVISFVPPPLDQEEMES
T19 sequence (P04626 23-1255): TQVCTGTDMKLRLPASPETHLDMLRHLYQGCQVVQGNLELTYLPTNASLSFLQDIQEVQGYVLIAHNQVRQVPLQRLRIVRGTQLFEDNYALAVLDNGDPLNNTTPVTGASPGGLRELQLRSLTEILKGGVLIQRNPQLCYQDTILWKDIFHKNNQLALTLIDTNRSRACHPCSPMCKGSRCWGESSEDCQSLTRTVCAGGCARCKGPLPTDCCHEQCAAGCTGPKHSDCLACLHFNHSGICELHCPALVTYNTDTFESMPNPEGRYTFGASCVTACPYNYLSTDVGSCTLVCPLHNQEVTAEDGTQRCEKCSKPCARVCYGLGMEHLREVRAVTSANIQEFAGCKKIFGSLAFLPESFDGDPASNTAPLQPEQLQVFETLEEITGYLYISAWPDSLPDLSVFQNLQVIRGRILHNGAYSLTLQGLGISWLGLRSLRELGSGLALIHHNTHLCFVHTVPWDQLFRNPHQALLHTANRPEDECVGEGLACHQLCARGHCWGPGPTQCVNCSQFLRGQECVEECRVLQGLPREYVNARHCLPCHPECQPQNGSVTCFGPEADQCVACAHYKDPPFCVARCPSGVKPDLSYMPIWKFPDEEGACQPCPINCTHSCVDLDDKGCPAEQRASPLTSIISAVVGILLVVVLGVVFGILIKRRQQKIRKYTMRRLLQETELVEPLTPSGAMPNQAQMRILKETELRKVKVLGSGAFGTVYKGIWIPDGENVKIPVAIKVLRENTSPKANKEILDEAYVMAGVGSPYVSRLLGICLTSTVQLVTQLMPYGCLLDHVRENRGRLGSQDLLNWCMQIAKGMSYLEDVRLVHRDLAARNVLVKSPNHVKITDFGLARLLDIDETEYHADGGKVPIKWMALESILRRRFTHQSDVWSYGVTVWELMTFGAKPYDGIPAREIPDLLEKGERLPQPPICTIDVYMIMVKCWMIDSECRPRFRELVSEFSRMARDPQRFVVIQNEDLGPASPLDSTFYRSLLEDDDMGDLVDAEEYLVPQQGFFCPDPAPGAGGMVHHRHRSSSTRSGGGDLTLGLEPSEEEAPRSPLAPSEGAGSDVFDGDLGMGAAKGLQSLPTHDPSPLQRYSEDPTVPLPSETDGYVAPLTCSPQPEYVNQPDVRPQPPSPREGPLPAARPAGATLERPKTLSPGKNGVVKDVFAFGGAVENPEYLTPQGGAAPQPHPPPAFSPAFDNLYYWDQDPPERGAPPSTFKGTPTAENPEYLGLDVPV
T7 sequence (Q06187 whole entry): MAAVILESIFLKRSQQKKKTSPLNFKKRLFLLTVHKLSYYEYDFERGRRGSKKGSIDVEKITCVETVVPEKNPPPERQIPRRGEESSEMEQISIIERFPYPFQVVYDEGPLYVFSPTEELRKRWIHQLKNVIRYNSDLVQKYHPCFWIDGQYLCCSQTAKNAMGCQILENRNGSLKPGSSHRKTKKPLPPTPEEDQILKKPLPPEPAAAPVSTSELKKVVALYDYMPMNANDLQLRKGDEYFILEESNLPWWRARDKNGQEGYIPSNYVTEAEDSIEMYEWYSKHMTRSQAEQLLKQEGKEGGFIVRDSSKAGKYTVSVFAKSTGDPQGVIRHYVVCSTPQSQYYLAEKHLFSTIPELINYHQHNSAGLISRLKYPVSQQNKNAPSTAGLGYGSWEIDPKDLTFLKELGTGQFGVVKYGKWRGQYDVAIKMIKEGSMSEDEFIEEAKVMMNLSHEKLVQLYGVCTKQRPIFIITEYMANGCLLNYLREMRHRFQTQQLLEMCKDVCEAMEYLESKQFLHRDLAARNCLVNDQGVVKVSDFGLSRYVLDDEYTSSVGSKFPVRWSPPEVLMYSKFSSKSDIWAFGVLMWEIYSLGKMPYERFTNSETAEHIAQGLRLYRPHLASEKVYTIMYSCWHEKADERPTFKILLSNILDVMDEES
T10 sequence (P29317 24-976): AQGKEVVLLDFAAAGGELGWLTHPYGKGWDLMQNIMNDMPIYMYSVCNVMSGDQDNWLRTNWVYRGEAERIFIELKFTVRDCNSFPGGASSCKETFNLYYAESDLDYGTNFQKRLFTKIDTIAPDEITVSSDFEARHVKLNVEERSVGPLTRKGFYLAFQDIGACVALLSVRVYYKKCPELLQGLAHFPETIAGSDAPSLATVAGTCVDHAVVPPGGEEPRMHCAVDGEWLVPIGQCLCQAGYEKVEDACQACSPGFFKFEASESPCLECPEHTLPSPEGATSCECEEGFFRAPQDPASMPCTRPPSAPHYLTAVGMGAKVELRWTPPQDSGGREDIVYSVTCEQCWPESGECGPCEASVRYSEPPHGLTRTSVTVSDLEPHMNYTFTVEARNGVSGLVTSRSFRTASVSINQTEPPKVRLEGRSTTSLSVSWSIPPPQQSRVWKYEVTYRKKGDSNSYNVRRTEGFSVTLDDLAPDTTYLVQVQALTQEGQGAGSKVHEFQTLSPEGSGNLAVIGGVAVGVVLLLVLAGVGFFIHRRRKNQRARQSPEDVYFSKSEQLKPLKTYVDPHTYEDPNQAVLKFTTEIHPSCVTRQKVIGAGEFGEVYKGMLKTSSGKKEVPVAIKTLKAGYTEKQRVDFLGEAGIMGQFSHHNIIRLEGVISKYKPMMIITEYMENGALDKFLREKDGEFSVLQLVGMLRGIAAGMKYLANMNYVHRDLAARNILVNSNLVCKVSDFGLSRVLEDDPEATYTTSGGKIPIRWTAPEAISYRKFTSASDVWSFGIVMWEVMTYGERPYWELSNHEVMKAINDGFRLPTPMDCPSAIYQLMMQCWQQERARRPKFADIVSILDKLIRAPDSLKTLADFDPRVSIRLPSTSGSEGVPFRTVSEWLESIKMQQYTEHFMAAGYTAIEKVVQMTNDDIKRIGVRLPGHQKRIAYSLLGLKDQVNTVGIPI
T6 sequence (P15056 whole entry V600E): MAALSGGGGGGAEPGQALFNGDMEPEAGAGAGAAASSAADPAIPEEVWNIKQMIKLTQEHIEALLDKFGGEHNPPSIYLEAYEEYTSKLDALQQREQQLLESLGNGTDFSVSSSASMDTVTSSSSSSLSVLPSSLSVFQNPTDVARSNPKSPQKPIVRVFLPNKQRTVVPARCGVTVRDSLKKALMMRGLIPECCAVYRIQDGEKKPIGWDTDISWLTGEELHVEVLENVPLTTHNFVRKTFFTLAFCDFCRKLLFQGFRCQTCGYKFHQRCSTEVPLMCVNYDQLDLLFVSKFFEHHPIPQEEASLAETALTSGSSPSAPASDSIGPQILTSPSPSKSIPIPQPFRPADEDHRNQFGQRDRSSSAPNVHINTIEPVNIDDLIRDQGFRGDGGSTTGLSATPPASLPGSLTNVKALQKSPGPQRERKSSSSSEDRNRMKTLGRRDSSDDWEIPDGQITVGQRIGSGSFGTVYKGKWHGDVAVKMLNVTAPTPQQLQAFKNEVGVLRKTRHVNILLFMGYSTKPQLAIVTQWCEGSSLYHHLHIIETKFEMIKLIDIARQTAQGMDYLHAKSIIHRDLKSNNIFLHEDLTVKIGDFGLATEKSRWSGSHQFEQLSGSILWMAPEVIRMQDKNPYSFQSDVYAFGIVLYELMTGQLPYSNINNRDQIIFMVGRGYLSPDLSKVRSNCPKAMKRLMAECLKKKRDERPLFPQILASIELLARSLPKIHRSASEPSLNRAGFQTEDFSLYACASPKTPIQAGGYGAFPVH
T14 sequence (P07332 whole entry): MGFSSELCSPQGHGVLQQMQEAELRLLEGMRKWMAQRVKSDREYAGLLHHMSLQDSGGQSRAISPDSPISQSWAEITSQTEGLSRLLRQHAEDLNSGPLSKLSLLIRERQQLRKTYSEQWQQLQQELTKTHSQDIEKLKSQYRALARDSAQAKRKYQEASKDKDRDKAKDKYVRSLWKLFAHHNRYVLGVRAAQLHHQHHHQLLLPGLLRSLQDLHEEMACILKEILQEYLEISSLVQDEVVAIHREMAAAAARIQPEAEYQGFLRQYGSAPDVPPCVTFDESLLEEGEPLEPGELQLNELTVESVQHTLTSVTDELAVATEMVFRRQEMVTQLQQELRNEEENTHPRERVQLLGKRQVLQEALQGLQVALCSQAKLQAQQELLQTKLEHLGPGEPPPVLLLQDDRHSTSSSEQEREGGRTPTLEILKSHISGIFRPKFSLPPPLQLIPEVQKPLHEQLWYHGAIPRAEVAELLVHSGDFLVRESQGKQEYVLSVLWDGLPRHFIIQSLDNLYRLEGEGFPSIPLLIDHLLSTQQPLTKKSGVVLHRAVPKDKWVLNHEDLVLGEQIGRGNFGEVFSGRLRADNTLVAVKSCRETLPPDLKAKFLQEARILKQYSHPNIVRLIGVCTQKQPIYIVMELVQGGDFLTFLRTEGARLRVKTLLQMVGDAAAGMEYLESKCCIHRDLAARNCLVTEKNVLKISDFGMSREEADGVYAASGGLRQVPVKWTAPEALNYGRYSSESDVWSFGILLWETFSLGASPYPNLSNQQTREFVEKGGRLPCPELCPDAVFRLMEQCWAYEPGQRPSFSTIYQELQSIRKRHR
T5 sequence (P15056 whole entry): as the sequence (P15056 whole entry V600E) above, with E600V counted along it

With `COC(=O)c1cc2cc(NCc3cc(NC(=O)c4ccc(CN5CCN(C)CC5)c(C(F)(F)F)c4)ccc3C)cnc2[nH]1` [OR0512] the inhibition at 10 µM (ABL) was no less than 50%, the inhibition at 0.1 µM (ABL E255K) was greater than 50% and the inhibition at 0.1 µM (ABL G250E) was greater than 50%. For the same compound, the inhibition at 0.1 µM (ABL2) was greater than 50%, the inhibition at 0.1 µM (BRAF) was no less than 50% and the inhibition at 0.1 µM (BRAF V600E) was greater than 50%. The inhibition at 0.1 µM (BTK) was greater than 50%, the inhibition at 0.1 µM (CSK) was greater than 50% and the inhibition at 0.1 µM (EGFR (ErbB1) T790M L858R) was less than 50%. It also gave an inhibition at 0.1 µM (EPHA2) greater than 50%, an inhibition at 0.1 µM (EPHB2) greater than 50% and an inhibition at 0.1 µM (ERBB4) greater than 50%. For the same compound, the inhibition at 0.1 µM (ERK2) was greater than 50%, the inhibition at 0.1 µM (FES) was greater than 50% and the inhibition at 0.1 µM (FGFR1) was no less than 50%. The inhibition at 0.1 µM (FRK) was greater than 50%, the inhibition at 0.1 µM (FYN) was greater than 50% and the inhibition at 0.1 µM (HCK) was greater than 50%. For the same compound, the inhibition at 0.1 µM (HER2) was greater than 50%, the inhibition at 0.1 µM (KDR (VEGFR2)) was no less than 50% and the inhibition at 0.1 µM (LYN A) was greater than 50%. It also gave an inhibition at 0.1 µM (MAPK14) greater than 50%, an inhibition at 0.1 µM (PKC theta) greater than 50% and an inhibition at 0.1 µM (SRC) of no less than 50%. For the same compound, the inhibition at 0.1 µM (VEGFR1) was less than 50% and the inhibition at 0.1 µM (VEGFR3) was greater than 50%.
